The values that follow come from patent EP0245209A1, “Milbemycin derivatives, their preparation and their use as pesticides” (CIBA-GEIGY AG, priority 1986, dated 1987).

What all share (type): in vivo
One series concerns Aedes aegypti. The series can be described thus: Larvicidal action against Aedes aegypti (larvae in water). Conditions: niedrigere Konzentrationen (below 3 ppm). As for the experimental part:
Beispiel B.10: Larvizidwirkung gegen Aedes aegypti
Auf die Oberfläche von 150 ml Wasser, das sich in einem Behälter befindet, wird soviel einer 0,1 %igen acetonischen Lösung des Wirkstoffes pipettiert, dass Konzentrationen von wahlweise 12,5 ppm, 3,3 ppm und 1,6 ppm erhalten werden. Nach Verdunsten des Acetons wird der Behälter mit ca. 30-40 3 Tage alten Aedes-Larven beschickt. Nach 1, 2 und 5 Tagen wird die Mortalität geprüft.

Series [1] deals with LI-Larven von Lucilia sericata. The series can be described thus: Action against L1 larvae of Lucilia sericata (larval culture medium, mortality). The conditions noted are these: reduced concentration of 100 ppm, after 4 days; for mortality at 100 ppm: Lucilia sericata, 96 h, read-out: Wirkung (Mortalitätsrate). Here is the method: Beispiel B.2: Wirkung gegen LI-Larven von Lucilia sericata
(§1) 1 ml einer wässrigen Suspension der zu prüfenden Aktivsubstanz werden so mit 3 ml eines speziellen Larvenzuchtmediums bei ca. 50°C vermischt, dass ein Homogenisat von wahlweise 250 ppm oder 100 ppm Wirkstoffgehalt entsteht. In jede Reagenzglas-Probe werden ca. 30 Lucilia-Larven (L1) eingesetzt. Nach 4 Tagen wird die Mortalitätsrate bestimmt. Die Verbindungen aus den Herstellungsbeispielen zeigen bei 250 ppm eine Wirkung von 100 %, wobei Verbindungen aus den Herstellungsbeispielen diese Wirkung auch noch bei der reduzierten Wirkstoffkonzentration von 100 ppm erzielen, wie beispielsweise die Verbindungen Nr. 1.10, 1.18, 1.26, 1.34, 1.39, 1.43, 1.46, 1.54, 1.58, 1.62, 1.82, 1.90 und 1.114.

The next series concerns Dermanyssus gallinae. The series can be described thus: Miticidal action against Dermanyssus gallinae (contact test in glass vessel, mortality). The conditions noted are these: geringere Wirkstoffkonzentrationen (below 100 ppm); observed three days; 4320 min. As for the experimental part:
Beispiel B.1: Milbizide Wirkung gegen Dermanyssus gallinae
2 bis 3 ml einer Testlösung (250, 100 und 10 ppm Aktivsubstanz) werden in einen nach oben offenen Glasbehälter gegeben und ca. 200 Milben in unterschiedlichen Entwicklungsstadien in diesen Behälter eingesetzt. Der Glasbehälter wird mit einem Wattebausch verschlossen und 10 Minuten gleichmässig, bis zur vollständigen [benetzung der Milben geschüttelt. Danach wird der Behälter umgekehrt hingestellt, bis die überschüssige Testlösung von der Watte aufgesogen ist. Der Behälter wird erneut gekehrt und die behandelten Zecken zur Evaluierung der Wirksamkeit der Testsubstanzen drei Tage unter Laborbedingungen beobachtet, wobei die Mortalität als Massstab für Wirksamkeit herangezogen wird.

Another series has as its system Aphis craccivora. The series can be described thus: Contact action on Aphis craccivora (sprayed pea seedlings). Conditions: niedrigere Konzentrationen (below 25 ppm); after 3 days. From the text: Beispiel B.9: Kontaktwirkung auf Aphis craccivora
Erbsenkeimlinge, die mit sämtlichen Entwicklungsstadien der Laus infiziert sind, werden mit einer aus einem Emulsionskonzentrat hergestellten Wirkstofflösung besprüht, die wahlweise 50 ppm, 25 ppm oder 12,5 ppm Wirkstoff enthält. Nach 3 Tagen wird auf mehr als 80 % tote bzw. abgefallene Blattläuse ausgewertet. Nur bei dieser Wirkungshöhe wird ein Präparat als wirksam eingestuft.

Series [2] concerns OP-sensible Tetranychus urticae. The experiment in a line: Action against plant-damaging acarids, OP-sensitive Tetranychus urticae (sprayed bean plants). Conditions: niedrigere Konzentrationen (below 1,6 ppm); after seven days. As for the experimental part: Beispiel B.7: Wirkung gegen pflanzenschädigende Akariden OP-sensible Tetranychus urticae
Die Primärblätter von Bohnenpflanzen (Phaseolus vulgaris) werden 16 Stunden vor dem Versuch mit einem durch T. urticae infestierten, aus einer Massenzucht stammenden Blattstück belegt. […] Die Temperatur in der Gewächshauskabine beträgt ca. 25°C.
Nach sieben Tagen wird unter dem Binokular auf Prozentsatz mobiler Stadien (Adulte und Nymphen) und auf vorhandene Eier ausgewertet.

For a further series, the system named is Spodoptera littoralis. The experiment in a line: Insecticidal stomach-poison action on Spodoptera littoralis (sprayed cotton plants). Conditions: niedrigere Konzentrationen (below 12,5 ppm); L1 larvae. As for the experimental part: Beispiel B.6: Insektizide Frassgift-Wirkung bei Spodoptera littoralis
Eingetopfte Baumwollpflanzen im 5-Blatt-Stadium werden mit einer acetonisch/wässrigen Versuchslösung besprüht, die 3, 12,5 oder 50 ppm der zu prüfenden Verbindung enthält.
Nach dem Antrocknen des Belags werden die Pflanzen mit ca. 30 Larven (LI-Stadium) von Spodoptera littoralis besetzt. Pro Versuchsverbindung und pro Test-Spezies verwendet man zwei Pflanzen. Der Versuch wird bei ca. 24°C und 60 % relativer Luftfeuchtigkeit durchgeführt. Auswertungen und Zwischenauswertungen auf moribunde Tiere, Wachstum und Larven und Frassschäden erfolgen nach 24 Stunden, 48 Stunden und 72 Stunden.

Series [3] concerns Ll-Larven von Lucilia cuprina. The experiment in a line: Action against L1 larvae of Lucilia cuprina (as B.2). Conditions: niedrigere Konzentrationen (below 100 ppm). Here is the method:
as §1
Beispiel B.3: Wirkung gegen Ll-Larven von Lucilia cuprina
Der Test wird wie unter B.2 beschrieben durchgeführt, jedoch mit Larven von Lucilia cuprina. […] Bei manchen Verbindungen wird dieser Effekt bereits mit niedrigeren Konzentrationen erreicht, beispielsweise mit den Verbindungen Nr. 1.34, 1.90 und 1.114.

As to `CC[C@H]1O[C@]2(CC[C@@H]1C)C[C@@H]1C[C@@H](C/C=C(\C)[C@H](OC(=O)Oc3ccc([N+](=O)[O-])cc3)[C@@H](C)/C=C/C=C3\CO[C@@H]4[C@H](O)C(C)=C[C@@H](C(=O)O1)[C@]34O)O2` [1.58, 13ß-(4-Nitrophenoxy)-carbonyloxy-milbemycin A4], the “Abtötung sämtlicher Larven” value with Aedes aegypti is “vollständige Abtötung”. The mortality at 100 ppm in series [1] amounted to 100%.
With `CC[C@H]1O[C@]2(CC[C@@H]1C)C[C@@H]1C[C@@H](C/C=C(\C)[C@H](OC(=O)OCCBr)[C@@H](C)/C=C/C=C3\CO[C@@H]4[C@H](O)C(C)=C[C@@H](C(=O)O1)[C@]34O)O2` [1.18, 13ß-(2-Bromäthoxy)-carbonyloxy-milbemycin A4], the mortality at 100 ppm in series [1] was determined as 100%. Further, in the series on Dermanyssus gallinae, the “Wirkung (Mortalität)” value was 100%.
For `CC[C@H]1O[C@]2(CC[C@@H]1C)C[C@@H]1C[C@@H](C/C=C(\C)[C@H](OC(=O)OC(C)(C)C(Cl)(Cl)Cl)[C@@H](C)/C=C/C=C3\CO[C@@H]4[C@H](O)C(C)=C[C@@H](C(=O)O1)[C@]34O)O2` [1.34, 13ß-[(1,1-Dimethyl-2,2,2-trichlorethoxy)-carbonyloxy]-milbemycin A4], in the series on Aedes aegypti, the “Abtötung sämtlicher Larven” value is “vollständige Abtötung”. In addition, the mortality at 100 ppm in series [1] was 100%. Moreover, the results for the Abtötung (with Aphis craccivora; in series [2]; in the series on Spodoptera littoralis) were 100%, “vollständige Abtötung” and “vollständige Abtötung”, respectively. In addition, the “Vernichtung des Schädlings” value in series [3] is reported as “vollständige Vernichtung”.
Take `CC[C@H]1O[C@]2(CC[C@@H]1C)C[C@@H]1C[C@@H](C/C=C(\C)[C@H](OC(=O)Oc3ccccc3)[C@@H](C)/C=C/C=C3\CO[C@@H]4[C@H](O)C(C)=C[C@@H](C(=O)O1)[C@]34O)O2` [1.54, 13ß-Phenoxycarbonyloxy-milbemycin A4]: the “Abtötung sämtlicher Larven” value with Aedes aegypti is on record as “vollständige Abtötung”. Besides, the mortality at 100 ppm in series [1] was 100%. Moreover, the values for the Abtötung in the series on Aphis craccivora and in the series on Spodoptera littoralis were 100% and “vollständige Abtötung”, respectively.
As to `COC(=O)O[C@H]1/C(C)=C/C[C@@H]2C[C@@H](C[C@]3(CC[C@H](C)[C@@H](C(C)C)O3)O2)OC(=O)[C@@H]2C=C(C)[C@@H](O)[C@H]3OC/C(=C\C=C\[C@@H]1C)[C@]32O` [1.3, 13ß-(Methoxycarbonyloxy)-milbemycin D], the Abtötung in the series with Aphis craccivora is given as 100%; in series [2], “vollständige Abtötung”; in the series on Spodoptera littoralis, “vollständige Abtötung”. The “Wirkung (Mortalität)” value with Dermanyssus gallinae amounted to 100%.
For the compound `CC[C@H]1O[C@]2(CC[C@@H]1C)C[C@@H]1C[C@@H](C/C=C(\C)[C@H](OC(=O)OCC(Cl)(Cl)C(F)(F)F)[C@@H](C)/C=C/C=C3\CO[C@@H]4[C@H](O)C(C)=C[C@@H](C(=O)O1)[C@]34O)O2` [1.98, 13ß-(3,3,3-Trifluor-2,2-dichlor-propyloxy)-carbonyloxy-milbemycin A4], the “Abtötung sämtlicher Larven” value in the series on Aedes aegypti was “vollständige Abtötung”. For the same compound, the Abtötung entry (in series [2]; with Spodoptera littoralis) was “vollständige Abtötung” in each case.
Consider `CC[C@H]1O[C@]2(CC[C@@H]1C)C[C@@H]1C[C@@H](C/C=C(\C)[C@H](OC(=O)OC(C)C)[C@@H](C)/C=C/C=C3\CO[C@@H]4[C@H](O)C(C)=C[C@@H](C(=O)O1)[C@]34O)O2` [1.10, 13ß-Isopropyloxycarbonyloxy-milbemycin A4], for which the “Abtötung sämtlicher Larven” value in the series with Aedes aegypti is reported as “vollständige Abtötung”. In addition, the mortality at 100 ppm in series [1] turned out to be 100%. Besides, the Abtötung in the series on Aphis craccivora is recorded as 100%; in series [2], “vollständige Abtötung”; with Spodoptera littoralis it was “vollständige Abtötung”. For the same compound, in the series with Dermanyssus gallinae, the “Wirkung (Mortalität)” value came to 100%.
Regarding “13β-(Cyclohexyloxycarbonyloxy)-milbemycin A4 [1.82]”, the “Abtötung sämtlicher Larven” value in the series with Aedes aegypti is “vollständige Abtötung”. For the same compound, the “Wirkung (Mortalitätsrate)” value in series [1] is on record as 100%. Further, the Abtötung result (in series [2]; in the series on Spodoptera littoralis) was “vollständige Abtötung” in each case.
Turning to “13ß-(9-Fluorenyl-methoxy)-carbonyloxy-milbemycin A4 [1.114]”, in the series with Aedes aegypti, the “Abtötung sämtlicher Larven” value is “vollständige Abtötung”. In series [1], the “Wirkung (Mortalitätsrate)” value worked out at 100%. Further, the “Vernichtung des Schädlings” value in series [3] is “vollständige Vernichtung”.
As to `CC[C@H]1O[C@]2(CC[C@@H]1C)C[C@@H]1C[C@@H](C/C=C(\C)[C@H](OC(=O)OC)[C@@H](C)/C=C/C=C3\CO[C@@H]4[C@H](O)C(C)=C[C@@H](C(=O)O1)[C@]34O)O2` [1.2, 13ß-(Methoxycarbonyloxy)-milbemycin A4], in the series on Aphis craccivora, the Abtötung was 100%. The “Wirkung (Mortalität)” value in the series with Dermanyssus gallinae was 100%.
For `CC[C@H]1O[C@]2(CC[C@@H]1C)C[C@@H]1C[C@@H](C/C=C(\C)[C@H](OC(=O)Oc3ccc(C(=O)OC)cc3)[C@@H](C)/C=C/C=C3\CO[C@@H]4[C@H](O)C(C)=C[C@@H](C(=O)O1)[C@]34O)O2` [1.62, 13ß-(4-Methoxycarbonylphenoxy)-carbonyloxy-milbemycin A4], in the series on Aedes aegypti, the “Abtötung sämtlicher Larven” value is listed as “vollständige Abtötung”. Also, the mortality at 100 ppm in series [1] is 100%.
For `C=CCOC(=O)O[C@H]1/C(C)=C/C[C@@H]2C[C@@H](C[C@]3(CC[C@H](C)[C@@H](C(C)C)O3)O2)OC(=O)[C@@H]2C=C(C)[C@@H](O)[C@H]3OC/C(=C\C=C\[C@@H]1C)[C@]32O` [1.43, 13β-(Allyloxycarbonyloxy)-milbemycin D], the mortality at 100 ppm in series [1] came out at 100%. For the same compound, the Abtötung in the series with Aphis craccivora worked out at 100%. In the series on Dermanyssus gallinae, the “Wirkung (Mortalität)” value is 100%.
Take `CC[C@H]1O[C@]2(CC[C@@H]1C)C[C@@H]1C[C@@H](C/C=C(\C)[C@H](OC(=O)OCc3ccccc3)[C@@H](C)/C=C/C=C3\CO[C@@H]4[C@H](O)C(C)=C[C@@H](C(=O)O1)[C@]34O)O2` [1.46, 13β-Benzyloxycarbonyloxy-milbemycin A4]: the mortality at 100 ppm in series [1] was determined as 100%. Moreover, the “Wirkung (Mortalität)” value in the series on Dermanyssus gallinae is on record as 100%.
For the compound `C=COC(=O)O[C@H]1/C(C)=C/C[C@@H]2C[C@@H](C[C@]3(CC[C@H](C)[C@@H](C(C)C)O3)O2)OC(=O)[C@@H]2C=C(C)[C@@H](O)[C@H]3OC/C(=C\C=C\[C@@H]1C)[C@]32O` [1.39, 13ß-(Vinyloxycarbonyloxy)-milbemycin D], the mortality at 100 ppm in series [1] was determined as 100%. The Abtötung in the series on Aphis craccivora is listed as 100%. The “Wirkung (Mortalität)” value in the series with Dermanyssus gallinae is 100%.
For the compound `CC[C@H]1O[C@]2(CC[C@@H]1C)C[C@@H]1C[C@@H](C/C=C(\C)[C@H](OC(=O)OCC(Cl)(Cl)Cl)[C@@H](C)/C=C/C=C3\CO[C@@H]4[C@H](O)C(C)=C[C@@H](C(=O)O1)[C@]34O)O2` [1.26, 13ß-[(2,2,2-Trichlorethoxy)-carbonyloxy]-milbemycin A4], the “Abtötung sämtlicher Larven” value with Aedes aegypti is given as “vollständige Abtötung”. Further, the mortality at 100 ppm in series [1] came to 100%. Moreover, in the series on Spodoptera littoralis, the Abtötung entry is “vollständige Abtötung”.
